{"source": "paper PMC8691750", "about": "“Euphorbia Factor L2 ameliorates the Progression of K/BxN Serum-Induced Arthritis by Blocking TLR7 Mediated IRAK4/IKKβ/IRF5 and NF-kB Signaling Pathways” (Frontiers in Pharmacology, 2021)", "tested_on": "TLR signalling pathway genes", "test": "Toll-like Receptor Pathway PCR array of ankles", "format": "in vivo, C57BL/6 mice", "settings": "for S40/SIA (fold change) / log2(fold change) S40/SIA: S40 group vs SIA group", "protocol": "Total RNA was isolated from the right ankles using the TRIzol Reagent (Invitrogen) and purified with RNeasy Mini Kit and RNase-Free DNase Set (Qiagen). RNA quality was determined using a spectrophotometer and was reversely transcribed using Wcgene® mRNA cDNA kit. The complementary DNA was used on the Toll-like Receptor Pathway PCR Array plate (Wcgene® biotech, China).", "note": "Several values for one entry are separate records, joined by “and”; a condition that tells them apart may be missing. Equal values may be shown once."}
{"smiles": "C=C1C(OC(=O)c2ccccc2)CC2C(C=C(C)C(=O)C3(OC(C)=O)CC(C)C(OC(=O)c4ccccc4)C3C1OC(C)=O)C2(C)C", "note": "(stereo not shown) [EFL2, Euphorbia factor L2]", "values": [{"measurement": "fold-GAPDH, ACTB", "setting": "ACTB mRNA relative to GAPDH (内参-GAPDH), individual mice of EFL2 group (S401, S402, S404, S405 = EFL2-1 to -4)", "value": "1.058 and 1.072 and 0.8044"}, {"measurement": "fold-GAPDH, B2M", "setting": "B2M mRNA relative to GAPDH, individual mice of EFL2 group (S401, S402, S404, S405)", "value": "0.312 and 0.4388 and 0.3402 and 0.1942"}, {"measurement": "fold-GAPDH, Becn1", "setting": "Becn1 mRNA relative to GAPDH, individual mice of EFL2 group (S401, S402, S404, S405)", "value": "0.001891 and 0.007192 and 0.004096"}, {"measurement": "S40/SIA (fold change)", "setting": "Becn1 mRNA", "value": 0.2727}, {"measurement": "log2(fold change) S40/SIA", "setting": "Becn1 mRNA", "value": -1.875}, {"measurement": "fold-GAPDH, Btk", "setting": "Btk mRNA relative to GAPDH, individual mice of EFL2 group (S401, S402, S404, S405)", "value": "0.002403 and 0.001831 and 0.004678 and 0.001063"}, {"measurement": "S40/SIA (fold change)", "setting": "Btk mRNA", "value": 0.3155}, {"measurement": "log2(fold change) S40/SIA", "setting": "Btk mRNA", "value": -1.664}, {"measurement": "fold-GAPDH, Casp8", "setting": "Casp8 mRNA relative to GAPDH, individual mice of EFL2 group (S401, S402, S404, S405)", "value": "0.01634 and 0.01358 and 0.009475"}, {"measurement": "S40/SIA (fold change)", "setting": "Casp8 mRNA", "value": 0.2393}, {"measurement": "log2(fold change) S40/SIA", "setting": "Casp8 mRNA", "value": -2.063}, {"measurement": "fold-GAPDH, Ccl2", "setting": "Ccl2 mRNA relative to GAPDH, individual mice of EFL2 group (S401, S402, S404, S405)", "value": "0.01529 and 0.00629 and 0.0002036"}, {"measurement": "S40/SIA (fold change)", "setting": "Ccl2 mRNA", "value": 0.0326}, {"measurement": "log2(fold change) S40/SIA", "setting": "Ccl2 mRNA", "value": -4.939}, {"measurement": "fold-GAPDH, Ccl11", "setting": "Ccl11 mRNA relative to GAPDH, individual mice of EFL2 group (S401, S402, S404, S405)", "value": "0.01036 and 0.008836 and 0.01327 and 0.005579"}, {"measurement": "S40/SIA (fold change)", "setting": "Ccl11 mRNA", "value": 1.864}, {"measurement": "log2(fold change) S40/SIA", "setting": "Ccl11 mRNA", "value": 0.8985}, {"measurement": "fold-GAPDH, Ccl20", "setting": "Ccl20 mRNA relative to GAPDH, individual mice of EFL2 group (S401, S402, S404, S405)", "value": "3.719e-5 and 0.0001299"}, {"measurement": "fold-GAPDH, Cd14", "setting": "Cd14 mRNA relative to GAPDH, individual mice of EFL2 group (S401, S402, S404, S405)", "value": "0.005751 and 0.00806 and 0.003038 and 0.001749"}, {"measurement": "fold-GAPDH, Cd80", "setting": "Cd80 mRNA relative to GAPDH, individual mice of EFL2 group (S401, S402, S404, S405)", "value": "0.002341 and 0.005041 and 0.0008698"}, {"measurement": "fold-GAPDH, Cd86", "setting": "Cd86 mRNA relative to GAPDH, individual mice of EFL2 group (S401, S402, S404, S405)", "value": "0.0007215 and 0.0005777 and 0.0007714 and 0.0003428"}, {"measurement": "S40/SIA (fold change)", "setting": "Cd86 mRNA", "value": 0.1925}, {"measurement": "log2(fold change) S40/SIA", "setting": "Cd86 mRNA", "value": -2.3771}, {"measurement": "fold-GAPDH, Chuk", "setting": "Chuk mRNA relative to GAPDH, individual mice of EFL2 group (S401, S402, S404, S405)", "value": "0.008767 and 0.01087 and 0.008829"}, {"measurement": "S40/SIA (fold change)", "setting": "Chuk mRNA", "value": 0.3313}, {"measurement": "log2(fold change) S40/SIA", "setting": "Chuk mRNA", "value": -1.594}, {"measurement": "fold-GAPDH, Clec4e", "setting": "Clec4e mRNA relative to GAPDH, individual mice of EFL2 group (S401, S402, S404, S405)", "value": "0.0002637 and 0.002249 and 0.0004993 and 4.1493e-5"}, {"measurement": "S40/SIA (fold change)", "setting": "Clec4e mRNA", "value": 0.0859}, {"measurement": "log2(fold change) S40/SIA", "setting": "Clec4e mRNA", "value": -3.541}, {"measurement": "fold-GAPDH, Cxcl10", "setting": "Cxcl10 mRNA relative to GAPDH, individual mice of EFL2 group (S401, S402, S404, S405)", "value": "2.1064e-5"}, {"measurement": "S40/SIA (fold change)", "setting": "Cxcl10 mRNA", "value": 0.002337}, {"measurement": "log2(fold change) S40/SIA", "setting": "Cxcl10 mRNA", "value": -8.741}, {"measurement": "fold-GAPDH, Eif2ak2", "setting": "Eif2ak2 mRNA relative to GAPDH, individual mice of EFL2 group (S401, S402, S404, S405)", "value": "0.004437 and 0.00565 and 0.003196"}, {"measurement": "fold-GAPDH, Elk1", "setting": "Elk1 mRNA relative to GAPDH, individual mice of EFL2 group (S401, S402, S404, S405)", "value": "0.006009 and 0.005652 and 0.006734 and 0.002589"}, {"measurement": "S40/SIA (fold change)", "setting": "Elk1 mRNA", "value": 0.3565}, {"measurement": "log2(fold change) S40/SIA", "setting": "Elk1 mRNA", "value": -1.488}, {"measurement": "fold-GAPDH, Fadd", "setting": "Fadd mRNA relative to GAPDH, individual mice of EFL2 group (S401, S402, S404, S405)", "value": "0.001977 and 0.0009207 and 0.00158 and 0.0009332"}, {"measurement": "S40/SIA (fold change)", "setting": "Fadd mRNA", "value": 0.1995}, {"measurement": "log2(fold change) S40/SIA", "setting": "Fadd mRNA", "value": -2.325}, {"measurement": "fold-GAPDH, Fos", "setting": "Fos mRNA relative to GAPDH, individual mice of EFL2 group (S401, S402, S404, S405)", "value": "0.02349 and 0.0137 and 0.0143 and 0.009915"}, {"measurement": "fold-GAPDH, HPRT1", "setting": "HPRT1 mRNA relative to GAPDH, individual mice of EFL2 group (S401, S402, S404, S405)", "value": "0.01241 and 0.008273 and 0.01631"}, {"measurement": "fold-GAPDH, Hmgb1", "setting": "Hmgb1 mRNA relative to GAPDH, individual mice of EFL2 group (S401, S402, S404, S405)", "value": "0.3089 and 0.3274 and 0.2681 and 0.1726"}, {"measurement": "fold-GAPDH, Hras1", "setting": "Hras1 mRNA relative to GAPDH, individual mice of EFL2 group (S401, S402, S404, S405)", "value": "0.02419 and 0.02746 and 0.02268 and 0.01475"}, {"measurement": "S40/SIA (fold change)", "setting": "Hras1 mRNA", "value": 0.4915}, {"measurement": "log2(fold change) S40/SIA", "setting": "Hras1 mRNA", "value": -1.025}, {"measurement": "fold-GAPDH, Hspa1a", "setting": "Hspa1a mRNA relative to GAPDH, individual mice of EFL2 group (S401, S402, S404, S405)", "value": "0.03203 and 0.003543 and 0.006228"}, {"measurement": "fold-GAPDH, Hspd1", "setting": "Hspd1 mRNA relative to GAPDH, individual mice of EFL2 group (S401, S402, S404, S405)", "value": "0.02796 and 0.02518 and 0.003019 and 0.01313"}, {"measurement": "S40/SIA (fold change)", "setting": "Hspd1 mRNA", "value": 0.2339}, {"measurement": "log2(fold change) S40/SIA", "setting": "Hspd1 mRNA", "value": -2.096}, {"measurement": "fold-GAPDH, IRF5", "setting": "IRF5 mRNA in ankles of STA mice, relative to GAPDH, one value per animal (samples S401-S405)", "value": "0.004631 and 0.004692 and 0.004033 and 0.001353"}, {"measurement": "S40/SIA (fold change)", "setting": "IRF5 mRNA", "value": 0.3677}, {"measurement": "log2(fold change) S40/SIA", "setting": "IRF5 mRNA", "value": -1.443}, {"measurement": "fold-GAPDH, Ikbkb", "setting": "Ikbkb mRNA relative to GAPDH, individual mice of EFL2 group (S401, S402, S404, S405)", "value": "0.009029 and 0.01266 and 0.01025 and 0.004561"}, {"measurement": "fold-GAPDH, Il1a", "setting": "Il1a mRNA relative to GAPDH, individual mice of EFL2 group (S401, S402, S404, S405)", "value": "0.0002392 and 0.0002831 and 9.48e-5"}, {"measurement": "fold-GAPDH, Il1b", "setting": "Il1b mRNA relative to GAPDH, individual mice of EFL2 group (S401, S402, S404, S405)", "value": "0.005996 and 0.0009616 and 0.0008 and 0.0006699"}, {"measurement": "S40/SIA (fold change)", "setting": "Il1b mRNA", "value": 0.0229}, {"measurement": "log2(fold change) S40/SIA", "setting": "Il1b mRNA", "value": -5.448}, {"measurement": "fold-GAPDH, Il6", "setting": "Il6 mRNA relative to GAPDH, individual mice of EFL2 group (S401, S402, S404, S405)", "value": "0.002971 and 0.0008677 and 0.0003997 and 0.0006556"}, {"measurement": "S40/SIA (fold change)", "setting": "Il6 mRNA", "value": 0.03478}, {"measurement": "log2(fold change) S40/SIA", "setting": "Il6 mRNA", "value": -4.845}, {"measurement": "fold-GAPDH, Il6ra", "setting": "Il6ra mRNA in ankles of STA mice, relative to GAPDH, one value per animal (samples S401-S405)", "value": "0.009397 and 0.01121 and 0.004741"}, {"measurement": "fold-GAPDH, Il10", "setting": "Il10 mRNA relative to GAPDH, individual mice of EFL2 group (S401, S402, S404, S405)", "value": "0.0001425 and 0.0002257 and 7.048e-5 and 9.932e-5"}, {"measurement": "S40/SIA (fold change)", "setting": "Il10 mRNA", "value": 0.2443}, {"measurement": "log2(fold change) S40/SIA", "setting": "Il10 mRNA", "value": -2.033}, {"measurement": "fold-GAPDH, Il12a", "setting": "Il12a mRNA relative to GAPDH, individual mice of EFL2 group (S401, S402, S404, S405)", "value": "0.001377 and 0.0005874 and 0.0009712 and 0.0002213"}, {"measurement": "fold-GAPDH, Ilr1", "setting": "Ilr1 mRNA in ankles of STA mice, relative to GAPDH, one value per animal (samples S401-S405)", "value": "0.01383 and 0.01561 and 0.01023 and 0.00774"}, {"measurement": "S40/SIA (fold change)", "setting": "Ilr1 mRNA", "value": 0.09556}, {"measurement": "log2(fold change) S40/SIA", "setting": "Ilr1 mRNA", "value": -3.388}, {"measurement": "fold-GAPDH, Irak1", "setting": "Irak1 mRNA in ankles of STA mice, relative to GAPDH, one value per animal (samples S401-S405)", "value": "0.02263 and 0.02515 and 0.01545 and 0.008286"}, {"measurement": "fold-GAPDH, Irak2", "setting": "Irak2 mRNA in ankles of STA mice, relative to GAPDH, one value per animal (samples S401-S405)", "value": "0.003024 and 0.004831 and 0.004355 and 0.002516"}]}
